Measured values from ChEMBL document CHEMBL1201862, “PubChem BioAssay data set” (2004).
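Values below derive from 48-hour exposures of cells grown in 96-well plates, with endpoints linearly interpolated between the two concentrations bracketing the appropriate inhibition level. GI50: concentration for 50% inhibition of growth.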 Calls of active or inactive are those of the source. No stated cut-off is given here; in the data, active = GI50 up to about 1.1 µM and inactive = higher.

Columns and labels:
Experiment in all cases: inhibition of tumour cell growth, NCI panel, 48 h
HL-60 = test system: HL-60
UO-31 = test system: UO-31
OVCAR-8 = test system: OVCAR-8
HOP-62 = test system: HOP-62
SN12C = test system: SN12C
SF-539 = test system: SF-539
CCRF-CEM = test system: CCRF-CEM
SK-OV-3 = test system: SK-OV-3
IGROV-1 = test system: IGROV-1
SK-MEL-28 = test system: SK-MEL-28
KM-20L2 = test system: KM-20L2
786-0 = test system: 786-0
NCI-H522 = test system: NCI-H522
UACC-257 = test system: UACC-257
TK-10 = test system: TK-10
SNB-75 = test system: SNB-75
NCI-H23 = test system: NCI-H23
PC-3 = test system: PC-3
DU-145 = test system: DU-145
Hs-578T = test system: Hs-578T

Row | SMILES | GI50 (HL-60) | GI50 (UO-31) | GI50 (OVCAR-8) | GI50 (HOP-62) | GI50 (SN12C) | GI50 (SF-539) | GI50 (CCRF-CEM) | GI50 (SK-OV-3) | GI50 (IGROV-1) | GI50 (SK-MEL-28) | GI50 (KM-20L2) | GI50 (786-0) | GI50 (NCI-H522) | GI50 (UACC-257) | GI50 (TK-10) | GI50 (SNB-75) | GI50 (NCI-H23) | GI50 (PC-3) | GI50 (DU-145) | GI50 (Hs-578T)
1 | C=CCC(C)(C(=O)NCCC)C(=O)c1ccccc1O (stereo unspecified) | > 100 µM (inactive) | > 100 µM (inactive) | > 100 µM (inactive) | > 100 µM (inactive) | > 100 µM (inactive) | > 100 µM (inactive) | > 100 µM (inactive) | > 100 µM (inactive) | > 100 µM (inactive) | > 100 µM (inactive) | > 100 µM (inactive) | > 100 µM (inactive) | > 100 µM (inactive) | > 100 µM (inactive) | > 100 µM (inactive) | > 100 µM (inactive) |  |  |  | 
2 | C=CCNC1=C(C(=O)OCC)C(=O)CO1 | > 100 µM (inactive) | > 100 µM (inactive) | > 100 µM (inactive) |  | > 100 µM (inactive) | > 100 µM (inactive) | > 100 µM (inactive) |  | > 100 µM (inactive) | > 100 µM (inactive) | > 100 µM (inactive) | > 100 µM (inactive) | > 100 µM (inactive) | > 100 µM (inactive) | > 100 µM (inactive) | > 100 µM (inactive) | > 100 µM (inactive) |  |  | 
3 | COc1cc(Br)c(CC2(C#N)c3ccccc3C3C(N2C(=O)c2ccccc2)C3(Cl)Cl)cc1OC (stereo unspecified) | 1.51 µM (inactive) | 50.6 µM (inactive) | > 65.5 µM (inactive) |  | > 65.5 µM (inactive) | 48 µM (inactive) | > 65.5 µM (inactive) | > 65.5 µM (inactive) | > 65.5 µM (inactive) | > 65.5 µM (inactive) | > 65.5 µM (inactive) | > 65.5 µM (inactive) | 3.52 µM (inactive) | 15.8 µM (inactive) | > 65.5 µM (inactive) | > 65.5 µM (inactive) | > 65.5 µM (inactive) |  |  | 
4 | CC(C(=O)c1ccccc1)C1(O)C(=O)Nc2ccccc21 (stereo unspecified) |  | > 100 µM (inactive) |  | > 100 µM (inactive) | > 100 µM (inactive) | > 100 µM (inactive) | > 100 µM (inactive) | > 100 µM (inactive) | > 100 µM (inactive) | > 100 µM (inactive) | > 100 µM (inactive) | > 100 µM (inactive) | > 100 µM (inactive) | > 100 µM (inactive) | > 100 µM (inactive) | > 100 µM (inactive) | > 100 µM (inactive) |  |  | 
5 | C=CCNC(=S)N1CC(C)C(=O)Nc2cc(Cl)ccc21 (stereo unspecified) | > 100 µM (inactive) | > 100 µM (inactive) | > 100 µM (inactive) | > 100 µM (inactive) | > 100 µM (inactive) | 76 µM (inactive) |  | > 100 µM (inactive) | > 100 µM (inactive) | > 100 µM (inactive) | > 100 µM (inactive) | > 100 µM (inactive) | > 100 µM (inactive) | > 100 µM (inactive) | > 100 µM (inactive) | > 100 µM (inactive) | > 100 µM (inactive) |  |  | 
6 | c1ccc2[nH]c(-c3nc4ccccc4o3)nc2c1 | 17.6 µM (inactive) | > 100 µM (inactive) | > 100 µM (inactive) | > 100 µM (inactive) | > 100 µM (inactive) | > 100 µM (inactive) | > 100 µM (inactive) | > 100 µM (inactive) | 46.5 µM (inactive) | > 100 µM (inactive) | > 100 µM (inactive) | > 100 µM (inactive) | 35.1 µM (inactive) | > 100 µM (inactive) | 45.1 µM (inactive) | > 100 µM (inactive) | > 100 µM (inactive) |  |  | 
7 | CCc1cc(Cc2ccc(C)c(NC(=O)C(=O)C3C(=O)NC(=O)NC3=O)c2CC)cc(C)c1NC(=O)C(=O)C1C(=O)NC(=O)NC1=O | > 100 µM (inactive) | > 100 µM (inactive) | > 100 µM (inactive) | > 100 µM (inactive) |  | > 100 µM (inactive) | > 100 µM (inactive) | > 100 µM (inactive) | > 100 µM (inactive) | > 100 µM (inactive) | > 100 µM (inactive) | > 100 µM (inactive) | > 100 µM (inactive) | > 100 µM (inactive) | > 100 µM (inactive) | 24.6 µM (inactive) | > 100 µM (inactive) |  |  | 
8 | COc1ccc2nc(NC(=O)C(=O)C(C(=O)c3ccccc3-c3ccccc3)C3OC(=O)c4ccccc43)sc2c1 (stereo unspecified) | 16 µM (inactive) | 20.7 µM (inactive) | 20.1 µM (inactive) | 16.2 µM (inactive) |  | 15.2 µM (inactive) | 15.5 µM (inactive) | 27.4 µM (inactive) | 25.8 µM (inactive) | 20.5 µM (inactive) | 25.1 µM (inactive) | 15.6 µM (inactive) | 9.89 µM (inactive) | 22.4 µM (inactive) | 25.2 µM (inactive) | 16.1 µM (inactive) | 13.8 µM (inactive) |  |  | 
9 | O=c1cc(N2CCOCC2)oc2c(-c3ccccc3)cccc12 [LY-294002] | 14.7 µM (inactive) | 15.8 µM (inactive) | 4.58 µM (inactive) | 4.59 µM (inactive) | 5.36 µM (inactive) | 7.98 µM (inactive) | 39.1 µM (inactive) | 14.2 µM (inactive) | 2.49 µM (inactive) | 16.9 µM (inactive) |  | 9.68 µM (inactive) | 2.21 µM (inactive) | 14.5 µM (inactive) | 23.7 µM (inactive) | 1.11 µM (active) | 3.76 µM (inactive) | 2.34 µM (inactive) | 12.4 µM (inactive) | 1.9 µM (inactive)
